{"source": "patent EP0211573A1", "about": "“Novel antimicrobial active agent and its production” (NICHIREI CORPORATION, priority 1985, dated 1987)", "key": {"[1]": {"assay": "Acute toxicity, intraperitoneal administration", "settings": "mouse, in vivo, ip, mice, in physiological saline containing gum arabic, read-out: LD₅₀", "method": "A compound, 1 - 5 mg, dissolved in physiological saline 0.2 ml containing gum arabic is administered intra peritoneally in mice, body weight 25 g, 10 mice in one group. LD₅₀ is over 200 mg/kg."}, "Saccharomyces sake": {"test_system": "Saccharomyces sake", "assay": "Paper disc agar antimicrobial activity assay (inhibitory zone)", "type": "cell-based", "settings": "paper disc 6 mm, 27 °C, 12 hours incubation, read-out: Diameter of inhibitory zone", "method": "(§1) The compound (Ia) dissolved in chloroform is immersed in paper disc, diameter 6 mm, and dried on a filter paper. Microbial strains shown in Table 1 are inoculated in agar medium, and paper discs hereinabove 1) are placed thereon then incubated at the temperature shown in the Table. Diameter of inhibitory zone is measured after 12 hours incubation."}, "Staphylococcus aureus": {"test_system": "Staphylococcus aureus", "assay": "Paper disc agar antimicrobial activity assay (inhibitory zone)", "type": "cell-based", "settings": "paper disc 6 mm, 37 °C, 12 hours incubation, read-out: Diameter of inhibitory zone", "method": "as §1"}, "[2]": {"assay": "Physico-chemical properties (solubility, nature)", "type": "physicochemical"}, "Escherichia coli": {"test_system": "Escherichia coli", "assay": "Paper disc agar antimicrobial activity assay (inhibitory zone)", "type": "cell-based", "parameters": "key to Diameter of inhibitory zone: ±: inhibitory zone slightly observed; +: inhibitroy zone < 7mm", "settings": "paper disc 6 mm, 37 °C, 12 hours incubation", "method": "as §1"}, "Bacillus subtilis": {"test_system": "Bacillus subtilis", "assay": "Paper disc agar antimicrobial activity assay (inhibitory zone)", "type": "cell-based", "parameters": "key to Diameter of inhibitory zone: ±: inhibitory zone slightly observed; +: inhibitroy zone < 7mm", "settings": "paper disc 6 mm, 37 °C, 12 hours incubation", "method": "as §1"}, "Sarcina lutea": {"test_system": "Sarcina lutea", "assay": "Paper disc agar antimicrobial activity assay (inhibitory zone)", "type": "cell-based", "parameters": "key to Diameter of inhibitory zone: ±: inhibitory zone slightly observed; +: inhibitroy zone < 7mm", "settings": "paper disc 6 mm, 37 °C, 12 hours incubation", "method": "as §1"}}, "note": "Entries after “also recorded” stand apart in the source; their conditions may differ."}
{"smiles": "COC1=C(OC)C(=O)c2c(O)c3c(c(O)c2C1=O)OCO3", "note": "[Ia, 5,8-dihydroxy-2,3-dimethoxy-6,7-methylenedioxy-1,4-naphthoquinone]", "values": [{"measurement": "LD50", "setting": "[1]", "result": "> 200", "unit": "mg/kg"}, {"measurement": "zone of inhibition at 56 µg/mL", "setting": "Saccharomyces sake; sample density 56 μg/m ℓ", "result": "< 7", "unit": "mm"}, {"measurement": "zone of inhibition at 224 µg/mL", "setting": "Saccharomyces sake; sample density 224 μg/m ℓ", "result": 7, "unit": "mm"}, {"measurement": "zone of inhibition at 448 µg/mL", "setting": "Saccharomyces sake; sample density 448 μg/m ℓ", "result": 7.3, "unit": "mm"}, {"measurement": "zone of inhibition at 28 µg/mL", "setting": "Staphylococcus aureus; sample density 28 μg/m ℓ", "result": "< 7", "unit": "mm"}, {"measurement": "zone of inhibition at 56 µg/mL", "setting": "Staphylococcus aureus; sample density 56 μg/m ℓ", "result": "< 7", "unit": "mm"}, {"measurement": "zone of inhibition at 112 µg/mL", "setting": "Staphylococcus aureus; sample density 112 μg/m ℓ", "result": "< 7", "unit": "mm"}, {"measurement": "zone of inhibition at 224 µg/mL", "setting": "Staphylococcus aureus; sample density 224 μg/m ℓ", "result": 7.7, "unit": "mm"}, {"measurement": "zone of inhibition at 448 µg/mL", "setting": "Staphylococcus aureus; sample density 448 μg/m ℓ", "result": 8.45, "unit": "mm"}, {"measurement": "nature", "setting": "[2]", "result": "acidic substance (water soluble under alkaline conditions)"}, {"measurement": "solubility", "setting": "[2]; acidic conditions, in organic solvent", "result": "soluble"}, {"measurement": "solubility", "setting": "[2]; acidic conditions, in water", "result": "insoluble"}, {"measurement": "solubility", "setting": "[2]; alkaline conditions, in organic solvents", "result": "insoluble"}, {"measurement": "solubility", "setting": "[2]; alkaline conditions, in water", "result": "easily soluble; also recorded: easily soluble under neutral and acidic conditions in organic solvents such as methanol, acetone, ethyl acetate, chloroform or benzene; easily soluble under alkaline conditions in water"}, {"measurement": "solubility", "setting": "[2]; neutral and acidic conditions, in organic solvents such as methanol, acetone, ethyl acetate, chloroform or benzene", "result": "easily soluble; also recorded: easily soluble under neutral and acidic conditions in organic solvents such as methanol, acetone, ethyl acetate, chloroform or benzene; easily soluble under alkaline conditions in water"}, {"measurement": "zone of inhibition at 112 µg/mL", "setting": "Escherichia coli; Escherichia coli, sample density 112 μg/m ℓ, read-out: Diameter of inhibitory zone", "result": "< 7", "unit": "mm"}, {"measurement": "zone of inhibition at 224 µg/mL", "setting": "Escherichia coli; Escherichia coli, sample density 224 μg/m ℓ, read-out: Diameter of inhibitory zone", "result": "< 7", "unit": "mm"}, {"measurement": "zone of inhibition at 448 µg/mL", "setting": "Escherichia coli; Escherichia coli, sample density 448 μg/m ℓ, read-out: Diameter of inhibitory zone", "result": "< 7", "unit": "mm"}, {"measurement": "Diameter of inhibitory zone", "setting": "Escherichia coli; sample density 56 μg/m ℓ", "result": "±"}, {"measurement": "zone of inhibition at 14 µg/mL", "setting": "Bacillus subtilis; Bacillus subtilis, sample density 14 μg/m ℓ, read-out: Diameter of inhibitory zone", "result": 7.1, "unit": "mm"}, {"measurement": "zone of inhibition at 28 µg/mL", "setting": "Bacillus subtilis; Bacillus subtilis, sample density 28 μg/m ℓ, read-out: Diameter of inhibitory zone", "result": 9.5, "unit": "mm"}, {"measurement": "zone of inhibition at 56 µg/mL", "setting": "Bacillus subtilis; Bacillus subtilis, sample density 56 μg/m ℓ, read-out: Diameter of inhibitory zone", "result": 8.6, "unit": "mm"}, {"measurement": "zone of inhibition at 112 µg/mL", "setting": "Bacillus subtilis; Bacillus subtilis, sample density 112 μg/m ℓ, read-out: Diameter of inhibitory zone", "result": 13.3, "unit": "mm"}, {"measurement": "zone of inhibition at 224 µg/mL", "setting": "Bacillus subtilis; Bacillus subtilis, sample density 224 μg/m ℓ, read-out: Diameter of inhibitory zone", "result": 13.3, "unit": "mm"}, {"measurement": "zone of inhibition at 448 µg/mL", "setting": "Bacillus subtilis; Bacillus subtilis, sample density 448 μg/m ℓ, read-out: Diameter of inhibitory zone", "result": 15.5, "unit": "mm"}, {"measurement": "Diameter of inhibitory zone", "setting": "Bacillus subtilis; sample density 7 μg/m ℓ", "result": "±**"}, {"measurement": "zone of inhibition at 56 µg/mL", "setting": "Sarcina lutea; Micrococcus luteus, sample density 56 μg/m ℓ, read-out: Diameter of inhibitory zone", "result": "< 7", "unit": "mm"}, {"measurement": "zone of inhibition at 112 µg/mL", "setting": "Sarcina lutea; Micrococcus luteus, sample density 112 μg/m ℓ, read-out: Diameter of inhibitory zone", "result": 7.4, "unit": "mm"}, {"measurement": "zone of inhibition at 224 µg/mL", "setting": "Sarcina lutea; Micrococcus luteus, sample density 224 μg/m ℓ, read-out: Diameter of inhibitory zone", "result": 7.4, "unit": "mm"}, {"measurement": "zone of inhibition at 448 µg/mL", "setting": "Sarcina lutea; Micrococcus luteus, sample density 448 μg/m ℓ, read-out: Diameter of inhibitory zone", "result": 7.4, "unit": "mm"}, {"measurement": "Diameter of inhibitory zone", "setting": "Sarcina lutea; sample density 14 μg/m ℓ", "result": "±"}, {"measurement": "Diameter of inhibitory zone", "setting": "Sarcina lutea; sample density 28 μg/m ℓ", "result": "±"}]}
